Laboratory results: patent US20030186464A1, “Surface plasmon resonance methods” (priority 2002, published 2003)

How the values were obtained:
wild type human IL-2 = wild type human IL-2 (Homo sapiens, UniProt P60568); assay: SPR binding of compounds to immobilized wild type IL-2 (Examples 1-2); conditions: for IL-2 wt Kd: immobilized wild type human IL-2
Y31C-IL-2-SS -3 = target: T1, Y31C-IL-2-SS -3 (Homo sapiens, UniProt P60568, Y51C); assay: SPR binding of compound to immobilized IL-2-SS-ligand complex (Examples 1-2); conditions: immobilized substrate-SS-ligand complex Y31C-IL-2-SS -3
T1 construct: made in house; host or cells: E. coli
Protocol: (§1) A CM5 sensor chip (Biacore-BR-1000-14) is docked in a Biacore 2000 SPR device, and the chip is then normalized using a standard Biacore protocol with 70% glycerol. The chip is next equilibrated in PBS for approximately 1 hr at a 20 μL/min flow rate. The dextran surface of the chip is activated through an NHS/EDC coupling. This activation is done using an amine coupling kit (Biacore—BR-100-50) containing N-hydroxysuccinimide (NHS 11.5 mg/mL) and N-ethyl-N′-(3-dimethylaminopropyl) carbodiimide hydrochloride (EDC 75 mg/mL). The two reagents are first mixed in a 1:1 ratio and then 35 μL of the mixture are injected at 5 mL/min. The chip is activated one flow cell at a time, and that flow cell is subsequently labeled with protein.
(§2) IL-2 cysteine mutants are expressed in E. coli cells and purified using standard procedures. The cysteine mutants are treated with 10 mM βME overnight to reduce the surface cysteine. The βME is removed and the protein-thiolate is placed in 100 mM HEPES buffer pH 7.4 (Nap-5 column, Pierce). […]
(§3) The protein-SS—ligand complex is next concentrated to 100 μM using a Millipore-UFV5BCCOO 5K NMWL membrane, 0.5 mL centrifugal filter and tube. […] After injection the change in RUs is measured by marking the RUs at t=0 and t=final and subtracting. […]
(§4) The dilution series are analyzed by BIAevaluation software version 3.0. […]

Y31C-IL-2-SS -4 = target: T2, Y31C-IL-2-SS -4 (Homo sapiens, UniProt P60568, Y51C); assay: as above; conditions: immobilized substrate-SS-ligand complex Y31C-IL-2-SS -4
T2 construct: made in house; host or cells: E. coli
Protocol: as §1, §2, §3, §4

immobilized IL-2 = target: T3, immobilized IL-2 (Homo sapiens, UniProt P60568); assay: Double ligand SPR on immobilized interleukin-2 (Examples 9-11); type: binding; conditions: for Kd: Example 11, immobilized interleukin-2, read-out: apparent Kd in SPR experiments
T3 construct: made in house; host or cells: E. coli
Protocol: as §1, with “SPR device” for “SPR device,”, “and” for “and the chip is then”, “This coupling” for “This activation”, “mg/mL). First, the” for “mg/mL). The”, “are” for “are first”, “5 μL/min.” for “5 mL/min.”
IL-2 is expressed in E. coli cells and purified using standard procedures. Protein is then concentrated to 100 μM and the buffer is exchanged to 100 mM MES pH 5.75 (Nap-5 column, Pierce). A sensorgram is then run over the activated flow cell at 2,L/min of PBS. The IL-2 solution is then injected at 2 μL/min for 10 min. After injection the change in RUs is measured by marking the RUs at t=0 and t=final and subtracting. This gives the total RU change, which is related to the total mass of protein successfully coupled to the CM5 surface. The total mass will later be used to determine stoichiometry of binding. This procedure is then repeated with another arbitrary protein to create a measure for nonspecific binding. The arbitrary protein is immobilized on an adjacent cell. […] The sensorgram is then altered to flow across all four cells on the CM5 chip at 5 μL/min PBS. A solution of 1 M ethanolamine hydrochloride-NaOH pH 8.5 (Amine coupling kit, Biacore-BR-100-50) is injected at 5 μL/min for 7 min. Proteins are immobilized at densities of 100-160 fmol/mm^2. The chip is equilibrated overnight in PBS+0.05% azide+2% DMSO at 20 μL/min.
In this experiment, variable concentrations of a compound are tested at a constant concentration of another compound. The compound held constant is 2c, for example (structure shown in Example 2). To determine appropriate constant concentrations for 2c, a compound titration is first performed. Dilution series of the compounds are typically performed to produce seven solutions having final compound concentrations of 30 mM, 10 mM, 3.3 mM, 1.1 mM, 0.37 mM, 0.12 mM, and 0.041 mM; an eighth solution is a DMSO-only baseline. The compounds are then diluted into PBS+0.05% azide to final concentrations of 300 μM, 100 μM, 33 μM, 11 μM, 3.7 μM, 1.2 μM, 0.41 μM. The compound solutions are injected from lowest concentration to highest at 40 μL/min for 1 min. The SPR software method includes a 1 min wash before injection, the injection and then a 3 min wash after the injection.
These dilution series are analyzed by BIAevaluation software version 3.0. Sensorgrams are plotted for compound binding to the IL-2 labeled cell of the chip. The sensorgrams are modified by subtracting the sensorgrams for the appropriate compound dilutions over cell 1 (a blank cell). This subtraction step removes any RU changes that might occur due to non-specific interactions between the compound and the chip itself or refractive changes in the buffer. Finally, the eight sensorgrams produced from the compound dilution series are zeroed at the average of their starting RUs. Then the sensorgram produced by injecting DMSO only is subtracted to reveal the final sensorgrams used to determine relative binding.
To determine KdSPR for the compound, the compound concentration is plotted on the X-axis, while the fraction bound at the plateau of the injection is plotted on the Y-axis. The curve is then analyzed via non-linear regression analysis (Kaleidagraph, Synergy Software). […] The concentration chosen is where the RUs remain constant at the top of the binding curve and thus the IL-2:2c ratio is 1. For 2c, this concentration is 100 μM.
A second compound is then run, this time in both the presence and absence of 2c. […]

K43C-IL-2-SS -2 = target: T4, K43C-IL-2-SS -2 (Homo sapiens, UniProt P60568, K63C); assay: SPR binding of compounds to immobilized IL-2-SS-ligand complex (Examples 1-2); conditions: immobilized substrate-SS-ligand complex K43C-IL-2-SS -2
T4 construct: made in house; host or cells: E. coli
Protocol: as §1, §2, §3, §4

T3 sequence (P60568 21-153): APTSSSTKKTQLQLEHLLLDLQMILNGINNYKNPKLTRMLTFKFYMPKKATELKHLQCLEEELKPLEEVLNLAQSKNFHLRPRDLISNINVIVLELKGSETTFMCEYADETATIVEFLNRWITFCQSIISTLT
wild type human IL-2, sequence (P60568 21-153): as above
T4 sequence (P60568 21-153 K63C): as the sequence (P60568 21-153) above, with K43C counted along it
T1 sequence (P60568 21-153 Y51C): as the sequence (P60568 21-153) above, with Y31C counted along it
T2 sequence (P60568 21-153 Y51C): as the sequence (P60568 21-153) above, with Y31C counted along it

Row | Kd (wild type human IL-2; immobilized wild type human IL-2, read-out: IL-2 wt Kd) | Kd (Y31C-IL-2-SS -3) | Kd (Y31C-IL-2-SS -4) | Kd (immobilized IL-2) | IL-2 wt Kd (wild type human IL-2) | Kd (K43C-IL-2-SS -2) | Kd,SPR IL-2 (immobilized IL-2; immobilized IL-2, no other compound) | SMILES
1 | 33 µM | 8 µM | 30 µM | 10 µM | – | – | – | COC(=O)[C@H](Cc1ccc(C=Cc2ccccc2)cc1)NC(=O)C[C@H]1CCCN(C(=N)N)C1 [Compound 2c]
2 | – | – | – | > 500 µM | Inactive | 250 µM | – | COCC(=O)N1CCc2c([nH]c3ccccc23)C1 [Compound 3c]
3 | – | – | – | – | Inactive | 210 µM | Inactive | COCN(C)C(=O)c1ccc(C(C)C)cc1 [Compound 4c]
